Legend:
[1] = test system: rat pure primary neuronal cultures; test: NMDA-induced caspase 3 activation in pure primary neuronal cultures; assay type: cell-based; settings: 300 µM NMDA
Protocol: Primary cultures of rat brain cortical neurons were prepared essentially as described previously. The fronto-lateral cortical lobes were dissected out of Sprague-Dawley embryonic day 17 fetuses and they were dissociated mechanically in Hanks' balanced solution. After centrifugation at 800×g for 5 min, the cells were resuspended in serum-free Neurobasal medium (GIBCO) supplemented with B27 (GIBCO) containing 2 mM L-glutamine, penicillin (20 units/ml) and streptomycin (5 µg/ml), and they were plated onto poly-L-lysine-coated 24-well culture plates or on poly-L-lysine-coated 6-well culture plates. […]
To assay N-methyl–D-aspartate (NMDA) excitotoxicity, primary cultures were seeded in 24-well plates at 15×10^4 cells/well, cultured for 7 days in vitro, and treated for different times with the vehicle alone (dimethyl sulfoxide (DMSO) 1%), NMDA (300 µM), NMDA (300 µM) + MTA (250 µM) or NMDA (300 µM) + MK-801, a NMDA receptor antagonist (10 µM). […] Caspase 3 activity was measured in these lysates one hour after the NMDA addition.
Cortical neurons, or mixed cortical neurons and glia, were seeded in poly-L-lysine-coated 6-well culture plates during 7 days in vitro before start the set of experiments. […] The extracts were then centrifuged at 5,000×g for 10 min at 4°C and the protein content was determined by the BCA protein assay. […]

[2] = test system: rat mixed cultures of neurons and astrocytes; test: Oxygen-glucose deprivation (OGD) with iodoacetate, LDH release; assay type: cell-based
Protocol: Finally, to prepare neuron-astrocyte co-cultures, neurons were resuspended in B27 Neurobasal medium plus 10% of foetal bovine serum (FBS) and then seeded onto a monolayer of astrocytes in 24-well plates at a density of 1–2×10^5 cells per well, the astrocytes having been prepared beforehand, as described elsewhere. One day later, the medium was replaced with B27-Neurobasal plus 10% FBS medium, and the cells were maintained at 37°C in 5% CO2. The cultures were used 8–9 days after plating. Neurons and astrocytes were identified with antibodies against microtubule-associated protein-2 and GFAP, respectively.
Ischemic damage was induced by incubating cell cultures for 1 h in a hyperbaric chamber in a nitrogen-saturated buffer containing: 130 mM NaCl, 5.4 mM KCl, 0.1323 mM CaCl2, 0.26 mM NaHCO3, 0.8 mM MgCl2, 1.18 mM NaH2PO4, 10 mM sucrose (OGD plus sucrose) and iodoacetate (IAA, 20 or 50 µM). IAA is a glycolytic blocker typically used in OGD experiments to simulate ischemic conditions. After the insult, the cells were incubated under normoxic conditions for an additional 24 h in the presence of glucose but in the absence of IAA. Distinct reagents were added during ischemia to evaluate their neuroprotective activity by assessing cell viability and cell death in the cultures.
The cell status was assessed by measuring the release of lactate dehydrogenase (LDH) from dead cells. LDH was measured spectrophotometrically at 490 nm on a 96-well plate reader using the Cytotox 96 Kit according to the manufacturer's instructions (Promega). The LDH release was defined by the ratio of LDH released to the total LDH present in the cell at the beginning of the treatment.

For 5′-deoxy-5′-methylthioadenosine [MTA], the “survival of neurons exposed to NMDA (caspase 3 activity)” value ([1]; co-treatment with MTA (100, 250 and 500 µM), 1 h) was “not enhanced”, the “caspase 3 activity induced by NMDA” value ([1]; pre-treatment 15 min before NMDA, MTA 100, 250 and 500 µM) was “decreased significantly” and the “protection against OGD (cell death, LDH release)” value ([2]; IAA 20 and 50 µM, MTA 10 µM or 100 µM, APV 100 µM) was “significant”. The “protection against OGD (cell death, LDH release)” value ([2]; supramaximal dose of MTA, 1 mM) was “neither protective nor did it lead to greater damage than OGD itself”.

From article PMC3944389, “Differential Neuroprotective Effects of 5′-Deoxy-5′-Methylthioadenosine” (PLoS ONE, 2014)
